Laboratory results from patent publication US20260262643A1, “HERBICIDAL BENZOXAZINES” (FMC CORPORATION, priority 2022, published 2026).

Experiments:
barnyardgrass [1] = test: Test C preemergence; type: in vivo, Echinochloa crusgalli; settings: for Barnyardgrass plant response rating: preemergence; for Plant response rating, Barnyardgrass: Preemergence
How it was run: (§1)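 Greenhouse herbicide screen, 10-day duration. Test chemicals in solvent/surfactant blend were sprayed onto soil at sowing (pre) or onto 2–10 cm seedlings at one to two leaves (post); injury scored visually against controls, 0 no effect to 100 complete control.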

ragweed [2] = test: Test C preemergence; type: in vivo, Ambrosia artemisiifolia; settings: for Ragweed plant response rating: preemergence; for Plant response rating, Ragweed: Preemergence
How it was run: as §1

ryegrass, Italian [3] = test: Test C postemergence; type: in vivo, Lolium multiflorum; settings: 10 days
How it was run: as §1

rice = test: Test D flooded paddy test; type: in vivo, Oryza sativa; settings: 250 g ai/ha, applied to paddy water, visual rating after 13 to 14 days, scale 0 to 100 (0 no effect, 100 complete control)
How it was run: (§2)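 Visual ratings from 0, meaning no effect, to 100, meaning complete control, were assigned against untreated controls 13 to 14 days after compounds were added to the floodwater of pots kept 3 cm deep, with plants at the 2-leaf stage.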

pigweed, palmer [4] = test: Test C postemergence; type: in vivo, Amaranthus palmeri; settings: 10 days
How it was run: as §1

soybean [5] = test: Test C postemergence; type: in vivo, Glycine max; settings: 10 days
How it was run: as §1

oat, wild [6] = test: Test C postemergence; type: in vivo, Avena fatua; settings: 10 days
How it was run: as §1

barnyardgrass [7] = test: Test D flooded paddy test; type: in vivo, Echinochloa crus-galli; settings: 250 g ai/ha, applied to paddy water, visual rating after 13 to 14 days, scale 0 to 100 (0 no effect, 100 complete control)
How it was run: as §2

green foxtail [8] = test: Test C preemergence; type: in vivo, Setaria viridis; settings: for Foxtail, Green plant response rating: preemergence; for Plant response rating, Foxtail, Green: Preemergence
How it was run: as §1

soybean [9] = test: Test C preemergence; type: in vivo, Glycine max; settings: for Soybean plant response rating: preemergence; for Plant response rating, Soybean: Preemergence
How it was run: as §1

oat, wild [10] = test: Test C preemergence; type: in vivo, Avena fatua; settings: for Oat, Wild plant response rating: preemergence; for Plant response rating, Oat, Wild: Preemergence
How it was run: as §1

pigweed, palmer [11] = test: Test C preemergence; type: in vivo, Amaranthus palmeri; settings: for Plant response rating, Pigweed, Palmer: Preemergence
How it was run: as §1

horseweed = test: Test C postemergence; type: in vivo, Erigeron canadensis; settings: 10 days
How it was run: as §1

ducksalad = test: Test D flooded paddy test; type: in vivo, Heteranthera limosa; settings: 250 g ai/ha, applied to paddy water, visual rating after 13 to 14 days, scale 0 to 100 (0 no effect, 100 complete control)
How it was run: as §2

corn [12] = test: Test C postemergence; type: in vivo, Zea mays; settings: 10 days
How it was run: as §1

blackgrass [13] = test: Test C preemergence; type: in vivo, Alopecurus myosuroides; settings: for Blackgrass plant response rating: preemergence; for Plant response rating, Blackgrass: Preemergence
How it was run: as §1

kochia [14] = test: Test C preemergence; type: in vivo, Bassia scoparia; settings: for Kochia plant response rating: preemergence; for Plant response rating, Kochia: Preemergence
How it was run: as §1

blackgrass [15] = test: Test C postemergence; type: in vivo, Alopecurus myosuroides; settings: 10 days
How it was run: as §1

ragweed [16] = test: Test C postemergence; type: in vivo, Ambrosia artemisiifolia; settings: 10 days
How it was run: as §1

sedge, umbrella = test: Test D flooded paddy test; type: in vivo, Cyperus difformis; settings: 250 g ai/ha, applied to paddy water, visual rating after 13 to 14 days, scale 0 to 100 (0 no effect, 100 complete control)
How it was run: as §2

wheat [17] = test: Test C preemergence; type: in vivo, Triticum aestivum; settings: for Wheat plant response rating: preemergence; for Plant response rating, Wheat: Preemergence
How it was run: as §1

galium = test: Test C postemergence; type: in vivo, Galium aparine; settings: 10 days
How it was run: as §1

barnyardgrass [18] = test: Test C postemergence; type: in vivo, Echinochloa crusgalli; settings: 10 days
How it was run: as §1

corn [19] = test: Test C preemergence; type: in vivo, Zea mays; settings: for Corn plant response rating: preemergence; for Plant response rating, Corn: Preemergence
How it was run: as §1

green foxtail [20] = test: Test C postemergence; type: in vivo, Setaria viridis; settings: 10 days
How it was run: as §1

kochia [21] = test: Test C postemergence; type: in vivo, Bassia scoparia; settings: 10 days
How it was run: as §1

ryegrass, Italian [22] = test: Test C preemergence; type: in vivo, Lolium multiflorum; settings: for Ryegrass, Italian plant response rating: preemergence; for Plant response rating, Ryegrass, Italian: Preemergence
How it was run: as §1

wheat [23] = test: Test C postemergence; type: in vivo, Triticum aestivum; settings: 10 days
How it was run: as §1

[24] = 500 g ai/ha, 0 to 100 scale (0 no effect, 100 complete control)
[25] = 125 g ai/ha, 0 to 100 scale, 0 no effect, 100 complete control
[26] = 500 g ai/ha, postemergence, 0 to 100 scale (0 no effect, 100 complete control)
[27] = Postemergence, 125 g ai/ha, 0 to 100 scale (0 no effect, 100 complete control)
[28] = 500 g ai/ha, visual rating after 10 days, 0 to 100 scale (0 no effect, 100 complete control)
[29] = Test C, 125 g ai/ha, 0 to 100 scale (0 no effect, 100 complete control)
[30] = 125 g ai/ha, postemergence, 0 to 100 scale, 0 no effect, 100 complete control
[31] = Postemergence, 500 g ai/ha, visual 0 to 100 scale (0 no effect, 100 complete control)

Cc1cccc2c1O[C@@H](C)CN2C(=O)c1cc(-n2cnc(C(C)C)n2)cc2c1CCO2 [Compound 392]
Barnyardgrass plant response rating (barnyardgrass [1]; [24]): 100 | Plant response rating, Barnyardgrass (barnyardgrass [1]; [25]): 90 | Ragweed plant response rating (ragweed [2]; [24]): 80 | Plant response rating, Ragweed (ragweed [2]; [25]): 80 | Plant response rating, Ryegrass, Italian (ryegrass, Italian [3]; [26]): 100 | Plant response rating, Ryegrass, Italian (ryegrass, Italian [3]; [27]): 80 | Plant response rating, Rice (Flood) (rice): 0 | Plant response rating, Pigweed, Palmer (pigweed, palmer [4]; [26]): 100 | Plant response rating, Pigweed, Palmer (pigweed, palmer [4]; [27]): 100 | Plant response rating, Soybean (soybean [5]; [26]): 100 | Plant response rating, Soybean (soybean [5]; [27]): 100 | Plant response rating, Oat, Wild (oat, wild [6]; [26]): 90 | Plant response rating, Oat, Wild (oat, wild [6]; [27]): 70 | Plant response rating, Barnyardgrass (Flood) (barnyardgrass [7]): 40 | Foxtail, Green plant response rating (green foxtail [8]; [24]): 100 | Plant response rating, Foxtail, Green (green foxtail [8]; [25]): 100 | Soybean plant response rating (soybean [9]; [24]): 100 | Plant response rating, Soybean (soybean [9]; [25]): 90 | Oat, Wild plant response rating (oat, wild [10]; [24]): 90 | Plant response rating, Oat, Wild (oat, wild [10]; [25]): 50 | Pigweed, Palmer plant response rating (pigweed, palmer [11]; 500 g ai/ha, preemergence, 0 to 100 scale (0 no effect, 100 complete control)): 100 | Plant response rating, Pigweed, Palmer (pigweed, palmer [11]; [25]): 100 | Plant response rating, Horseweed (horseweed; [26]): 90 | Plant response rating, Horseweed (horseweed; [27]): 60 | Plant response rating, Ducksalad (Flood) (ducksalad): 65 | Plant response rating, Corn (corn [12]; [26]): 80 | Plant response rating, Corn (corn [12]; [27]): 30 | Blackgrass plant response rating (blackgrass [13]; [24]): 80 | Plant response rating, Blackgrass (blackgrass [13]; [25]): 70 | Kochia plant response rating (kochia [14]; [24]): 90 | Plant response rating, Kochia (kochia [14]; [25]): 90 | Plant response rating, Blackgrass (blackgrass [15]; [26]): 90 | Plant response rating, Blackgrass (blackgrass [15]; [27]): 80 | Plant response rating, Ragweed (ragweed [16]; [26]): 90 | Plant response rating, Ragweed (ragweed [16]; [27]): 90 | Plant response rating, Sedge, Umbrella (Flood) (sedge, umbrella): 65 | Wheat plant response rating (wheat [17]; [24]): 60 | Plant response rating, Wheat (wheat [17]; [25]): 20 | Plant response rating, Galium (galium; [26]): 100 | Plant response rating, Galium (galium; [27]): 100 | Plant response rating, Barnyardgrass (barnyardgrass [18]; [26]): 80 | Plant response rating, Barnyardgrass (barnyardgrass [18]; [27]): 50 | Corn plant response rating (corn [19]; [24]): 70 | Plant response rating, Corn (corn [19]; [25]): 30 | Plant response rating, Foxtail, Green (green foxtail [20]; [26]): 90 | Plant response rating, Foxtail, Green (green foxtail [20]; [27]): 60 | Plant response rating, Kochia (kochia [21]; [26]): 90 | Plant response rating, Kochia (kochia [21]; [27]): 90 | Ryegrass, Italian plant response rating (ryegrass, Italian [22]; [24]): 100 | Plant response rating, Ryegrass, Italian (ryegrass, Italian [22]; [25]): 90 | Plant response rating, Wheat (wheat [23]; [26]): 60 | Plant response rating, Wheat (wheat [23]; [27]): 50

Cc1cccc2c1O[C@H](C)CN2C(=O)c1cccc(-c2ncn(C(C)C)n2)c1 [Compound 221]
Plant response rating, Barnyardgrass (barnyardgrass [1]; [28]): 0 | Barnyardgrass plant response rating (barnyardgrass [1]; [29]): 0 | Plant response rating, Ragweed (ragweed [2]; [28]): 0 | Ragweed plant response rating (ragweed [2]; [29]): 0 | Plant response rating, Ryegrass, Italian (ryegrass, Italian [3]; [30]): 0 | Plant response rating, Ryegrass, Italian (ryegrass, Italian [3]; [31]): 0 | Plant response rating, Rice (Flood) (rice): 0 | Plant response rating, Pigweed, Palmer (pigweed, palmer [4]; [30]): 0 | Plant response rating, Pigweed, Palmer (pigweed, palmer [4]; [31]): 0 | Plant response rating, Soybean (soybean [5]; [30]): 0 | Plant response rating, Soybean (soybean [5]; [31]): 0 | Plant response rating, Oat, Wild (oat, wild [6]; [30]): 0 | Plant response rating, Oat, Wild (oat, wild [6]; [31]): 0 | Plant response rating, Barnyardgrass (Flood) (barnyardgrass [7]): 0 | Plant response rating, Foxtail, Green (green foxtail [8]; [28]): 0 | Foxtail, Green plant response rating (green foxtail [8]; [29]): 0 | Plant response rating, Soybean (soybean [9]; [28]): 0 | Soybean plant response rating (soybean [9]; [29]): 0 | Plant response rating, Oat, Wild (oat, wild [10]; [28]): 0 | Oat, Wild plant response rating (oat, wild [10]; [29]): 0 | Plant response rating, Pigweed, Palmer (pigweed, palmer [11]; [28]): 0 | Plant response rating, Horseweed (horseweed; [30]): 0 | Plant response rating, Horseweed (horseweed; [31]): 20 | Plant response rating, Ducksalad (Flood) (ducksalad): 0 | Plant response rating, Corn (corn [12]; [30]): 0 | Plant response rating, Corn (corn [12]; [31]): 0 | Plant response rating, Blackgrass (blackgrass [13]; [28]): 0 | Blackgrass plant response rating (blackgrass [13]; [29]): 0 | Plant response rating, Kochia (kochia [14]; [28]): 0 | Kochia plant response rating (kochia [14]; [29]): 0 | Plant response rating, Blackgrass (blackgrass [15]; [30]): 0 | Plant response rating, Blackgrass (blackgrass [15]; [31]): 0 | Plant response rating, Ragweed (ragweed [16]; [30]): 0 | Plant response rating, Ragweed (ragweed [16]; [31]): 0 | Plant response rating, Sedge, Umbrella (Flood) (sedge, umbrella): 0 | Plant response rating, Wheat (wheat [17]; [28]): 0 | Wheat plant response rating (wheat [17]; [29]): 0 | Plant response rating, Galium (galium; [30]): 0 | Plant response rating, Galium (galium; [31]): 0 | Plant response rating, Barnyardgrass (barnyardgrass [18]; [30]): 0 | Plant response rating, Barnyardgrass (barnyardgrass [18]; [31]): 10 | Plant response rating, Corn (corn [19]; [28]): 0 | Corn plant response rating (corn [19]; [29]): 0 | Plant response rating, Foxtail, Green (green foxtail [20]; [30]): 0 | Plant response rating, Foxtail, Green (green foxtail [20]; [31]): 0 | Plant response rating, Kochia (kochia [21]; [30]): 0 | Plant response rating, Kochia (kochia [21]; [31]): 0 | Plant response rating, Ryegrass, Italian (ryegrass, Italian [22]; [28]): 0 | Ryegrass, Italian plant response rating (ryegrass, Italian [22]; [29]): 0 | Plant response rating, Wheat (wheat [23]; [30]): 0 | Plant response rating, Wheat (wheat [23]; [31]): 0
